Test results published in the supplement of paper PMC10307832.

Assays:
Assay in all cases: relative viability (nuclei count vs DMSO), 5 days (fraction); higher = more cells survive
[1] = compound: CO[C@H]1C[C@@H]2CC[C@@H](C)[C@@](O)(O2)C(=O)C(=O)N2CCCC[C@H]2C(=O)O[C@H]([C@H](C)C[C@@H]2CC[C@@H](OCCO)[C@H](OC)C2)CC(=O)[C@H](C)/C=C(\C)[C@@H](O)[C@@H](OC)C(=O)[C@H](C)C[C@H](C)/C=C/C=C/C=C/1C [Everolimus] + C[C@]1(O)C[C@@H](c2nc(-c3ccc4ccc(-c5ccccc5)nc4c3)c3c(N)nccn32)C1 [Linsitinib] (partner 1 µM)
Summary of the method: (§1)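 Cells from lung cancer lines were seeded into 1536-well plates and, one day later, dosed by pin tool. Treatments were either a single drug or a fixed dose of an anchor drug with five library-drug doses (not always all listed) in √10 steps. After 5 days, nuclei were stained in a one-step fixation (final 0.05% Triton X-100, 1% formaldehyde, 1 ug/ml Hoechst) and counted on 4× images, and relative viability is the treated-to-vehicle nuclei ratio, as the median of duplicate plates.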

[2] = compound: CO[C@H]1C[C@@H]2CC[C@@H](C)[C@@](O)(O2)C(=O)C(=O)N2CCCC[C@H]2C(=O)O[C@H]([C@H](C)C[C@@H]2CC[C@@H](OCCO)[C@H](OC)C2)CC(=O)[C@H](C)/C=C(\C)[C@@H](O)[C@@H](OC)C(=O)[C@H](C)C[C@H](C)/C=C/C=C/C=C/1C [Everolimus] + Nc1nc2[nH]cc(CCc3ccc(C(=O)N[C@@H](CCC(=O)O)C(=O)O)cc3)c2c(=O)[nH]1 [Pemetrexed] (partner 0.2 µM)
Summary of the method: as §1

[3] = compound: CO[C@H]1C[C@@H]2CC[C@@H](C)[C@@](O)(O2)C(=O)C(=O)N2CCCC[C@H]2C(=O)O[C@H]([C@H](C)C[C@@H]2CC[C@@H](OCCO)[C@H](OC)C2)CC(=O)[C@H](C)/C=C(\C)[C@@H](O)[C@@H](OC)C(=O)[C@H](C)C[C@H](C)/C=C/C=C/C=C/1C [Everolimus] + O=C(CCCCCCC(=O)Nc1ccccc1)NO [Vorinostat] (partner 1 µM)
Summary of the method: as §1

[4] = compound: CO[C@H]1C[C@@H]2CC[C@@H](C)[C@@](O)(O2)C(=O)C(=O)N2CCCC[C@H]2C(=O)O[C@H]([C@H](C)C[C@@H]2CC[C@@H](OCCO)[C@H](OC)C2)CC(=O)[C@H](C)/C=C(\C)[C@@H](O)[C@@H](OC)C(=O)[C@H](C)C[C@H](C)/C=C/C=C/C=C/1C [Everolimus] + O=C(c1cc(Cc2n[nH]c(=O)c3ccccc23)ccc1F)N1CCN(C(=O)C2CC2)CC1 [Olaparib] (partner 8 µM)
Summary of the method: as §1

## SK-LU-1
[1]; first compound 0.01 µM
  relative viability: 0.501
[1]; first compound 0.03162 µM
  relative viability: 0.66
[1]; first compound 0.1 µM
  relative viability: 0.552
[1]; first compound 0.3162 µM
  relative viability: 0.614
[1]; first compound 1 µM
  relative viability: 0.631
[2]; first compound 0.01 µM
  relative viability: 0.607
[2]; first compound 0.03162 µM
  relative viability: 0.683
[2]; first compound 0.1 µM
  relative viability: 0.688
[2]; first compound 0.3162 µM
  relative viability: 0.74
[2]; first compound 1 µM
  relative viability: 0.681
[3]; first compound 0.01 µM
  relative viability: 0.52
[3]; first compound 0.03162 µM
  relative viability: 0.52
[3]; first compound 0.1 µM
  relative viability: 0.587
[3]; first compound 0.3162 µM
  relative viability: 0.538
[3]; first compound 1 µM
  relative viability: 0.527
[4]; first compound 0.01 µM
  relative viability: 0.423
[4]; first compound 0.03162 µM
  relative viability: 0.378
[4]; first compound 0.1 µM
  relative viability: 0.301
[4]; first compound 0.3162 µM
  relative viability: 0.389
[4]; first compound 1 µM
  relative viability: 0.362

## SK-MES-1
[1]; first compound 0.01 µM
  relative viability: 0.964
[1]; first compound 0.03162 µM
  relative viability: 0.661
[1]; first compound 0.1 µM
  relative viability: 0.689
[1]; first compound 0.3162 µM
  relative viability: 0.606
[1]; first compound 1 µM
  relative viability: 0.511
[2]; first compound 0.01 µM
  relative viability: 0.839
[2]; first compound 0.03162 µM
  relative viability: 0.826
[2]; first compound 0.1 µM
  relative viability: 0.825
[2]; first compound 0.3162 µM
  relative viability: 0.827
[2]; first compound 1 µM
  relative viability: 0.741
[3]; first compound 0.01 µM
  relative viability: 0.897
[3]; first compound 0.03162 µM
  relative viability: 1
[3]; first compound 0.1 µM
  relative viability: 1
[3]; first compound 0.3162 µM
  relative viability: 0.887
[3]; first compound 1 µM
  relative viability: 0.743
[4]; first compound 0.01 µM
  relative viability: 0.539
[4]; first compound 0.03162 µM
  relative viability: 0.468
[4]; first compound 0.1 µM
  relative viability: 0.512
[4]; first compound 0.3162 µM
  relative viability: 0.537
[4]; first compound 1 µM
  relative viability: 0.421

## SW 1573
[1]; first compound 0.01 µM
  relative viability: 0.615
[1]; first compound 0.03162 µM
  relative viability: 0.454
[1]; first compound 0.1 µM
  relative viability: 0.506
[1]; first compound 0.3162 µM
  relative viability: 0.401
[1]; first compound 1 µM
  relative viability: 0.386
[2]; first compound 0.01 µM
  relative viability: 0.594
[2]; first compound 0.03162 µM
  relative viability: 0.592
[2]; first compound 0.1 µM
  relative viability: 0.543
[2]; first compound 0.3162 µM
  relative viability: 0.562
[2]; first compound 1 µM
  relative viability: 0.496
[3]; first compound 0.01 µM
  relative viability: 0.373
[3]; first compound 0.03162 µM
  relative viability: 0.452
[3]; first compound 0.1 µM
  relative viability: 0.465
[3]; first compound 0.3162 µM
  relative viability: 0.458
[3]; first compound 1 µM
  relative viability: 0.478
[4]; first compound 0.01 µM
  relative viability: 0.264
[4]; first compound 0.03162 µM
  relative viability: 0.384
[4]; first compound 0.1 µM
  relative viability: 0.314
[4]; first compound 0.3162 µM
  relative viability: 0.268
[4]; first compound 1 µM
  relative viability: 0.3

## UMC-11
[1]; first compound 0.01 µM
  relative viability: 0.443
[1]; first compound 0.03162 µM
  relative viability: 0.391
[1]; first compound 0.1 µM
  relative viability: 0.419
[1]; first compound 0.3162 µM
  relative viability: 0.388
[1]; first compound 1 µM
  relative viability: 0.393
[2]; first compound 0.01 µM
  relative viability: 0.43
[2]; first compound 0.03162 µM
  relative viability: 0.412
[2]; first compound 0.1 µM
  relative viability: 0.429
[2]; first compound 0.3162 µM
  relative viability: 0.394
[2]; first compound 1 µM
  relative viability: 0.426
[3]; first compound 0.01 µM
  relative viability: 0.213
[3]; first compound 0.03162 µM
  relative viability: 0.196
[3]; first compound 0.1 µM
  relative viability: 0.19
[3]; first compound 0.3162 µM
  relative viability: 0.187
[3]; first compound 1 µM
  relative viability: 0.213
[4]; first compound 0.01 µM
  relative viability: 0.362
[4]; first compound 0.03162 µM
  relative viability: 0.273
[4]; first compound 0.1 µM
  relative viability: 0.223
[4]; first compound 0.3162 µM
  relative viability: 0.239
[4]; first compound 1 µM
  relative viability: 0.29
